# Patent US20220347175A1, “PYRIDAZINONE DERIVATIVE” (Sumitomo Dainippon Pharma Co., Ltd., priority 2018, published 2022)
# Legend:
# human Nav1.1 = molecular target: T1, human Nav1.1 (Homo sapiens, UniProt P35498); assay: Amplification of Nav1.1-derived voltage-dependent sodium current (Nav1.1 current), cell line stably expressing human Nav1.1, automated patch clamp; assay type: cell-based
# T1 construct: host or cells: HEK293
# Summary of the method: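 Automated whole-cell voltage-clamp recordings used HEK293 cells stably expressing human Nav1.1, keeping only cells with >500 pA current, with currents evoked by ramp voltage. Compounds were applied in extracellular fluid with 1% DMSO, and amplification (%) was computed from peak current or AUC after versus before addition.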
# human Nav1.5 = molecular target: T2, human Nav1.5 (Homo sapiens, UniProt Q14524); assay: Amplification of Nav1.5-derived voltage-dependent sodium current (Nav1.5 current), cell line stably expressing human Nav1.5, automated patch clamp; assay type: cell-based
# T2 construct: expressed in transfected cells; host or cells: CHO-K1 (T-REx System, ThermoFisher Scientific)
# T2 sequence (Q14524 1-2015 isoform Q14524-2): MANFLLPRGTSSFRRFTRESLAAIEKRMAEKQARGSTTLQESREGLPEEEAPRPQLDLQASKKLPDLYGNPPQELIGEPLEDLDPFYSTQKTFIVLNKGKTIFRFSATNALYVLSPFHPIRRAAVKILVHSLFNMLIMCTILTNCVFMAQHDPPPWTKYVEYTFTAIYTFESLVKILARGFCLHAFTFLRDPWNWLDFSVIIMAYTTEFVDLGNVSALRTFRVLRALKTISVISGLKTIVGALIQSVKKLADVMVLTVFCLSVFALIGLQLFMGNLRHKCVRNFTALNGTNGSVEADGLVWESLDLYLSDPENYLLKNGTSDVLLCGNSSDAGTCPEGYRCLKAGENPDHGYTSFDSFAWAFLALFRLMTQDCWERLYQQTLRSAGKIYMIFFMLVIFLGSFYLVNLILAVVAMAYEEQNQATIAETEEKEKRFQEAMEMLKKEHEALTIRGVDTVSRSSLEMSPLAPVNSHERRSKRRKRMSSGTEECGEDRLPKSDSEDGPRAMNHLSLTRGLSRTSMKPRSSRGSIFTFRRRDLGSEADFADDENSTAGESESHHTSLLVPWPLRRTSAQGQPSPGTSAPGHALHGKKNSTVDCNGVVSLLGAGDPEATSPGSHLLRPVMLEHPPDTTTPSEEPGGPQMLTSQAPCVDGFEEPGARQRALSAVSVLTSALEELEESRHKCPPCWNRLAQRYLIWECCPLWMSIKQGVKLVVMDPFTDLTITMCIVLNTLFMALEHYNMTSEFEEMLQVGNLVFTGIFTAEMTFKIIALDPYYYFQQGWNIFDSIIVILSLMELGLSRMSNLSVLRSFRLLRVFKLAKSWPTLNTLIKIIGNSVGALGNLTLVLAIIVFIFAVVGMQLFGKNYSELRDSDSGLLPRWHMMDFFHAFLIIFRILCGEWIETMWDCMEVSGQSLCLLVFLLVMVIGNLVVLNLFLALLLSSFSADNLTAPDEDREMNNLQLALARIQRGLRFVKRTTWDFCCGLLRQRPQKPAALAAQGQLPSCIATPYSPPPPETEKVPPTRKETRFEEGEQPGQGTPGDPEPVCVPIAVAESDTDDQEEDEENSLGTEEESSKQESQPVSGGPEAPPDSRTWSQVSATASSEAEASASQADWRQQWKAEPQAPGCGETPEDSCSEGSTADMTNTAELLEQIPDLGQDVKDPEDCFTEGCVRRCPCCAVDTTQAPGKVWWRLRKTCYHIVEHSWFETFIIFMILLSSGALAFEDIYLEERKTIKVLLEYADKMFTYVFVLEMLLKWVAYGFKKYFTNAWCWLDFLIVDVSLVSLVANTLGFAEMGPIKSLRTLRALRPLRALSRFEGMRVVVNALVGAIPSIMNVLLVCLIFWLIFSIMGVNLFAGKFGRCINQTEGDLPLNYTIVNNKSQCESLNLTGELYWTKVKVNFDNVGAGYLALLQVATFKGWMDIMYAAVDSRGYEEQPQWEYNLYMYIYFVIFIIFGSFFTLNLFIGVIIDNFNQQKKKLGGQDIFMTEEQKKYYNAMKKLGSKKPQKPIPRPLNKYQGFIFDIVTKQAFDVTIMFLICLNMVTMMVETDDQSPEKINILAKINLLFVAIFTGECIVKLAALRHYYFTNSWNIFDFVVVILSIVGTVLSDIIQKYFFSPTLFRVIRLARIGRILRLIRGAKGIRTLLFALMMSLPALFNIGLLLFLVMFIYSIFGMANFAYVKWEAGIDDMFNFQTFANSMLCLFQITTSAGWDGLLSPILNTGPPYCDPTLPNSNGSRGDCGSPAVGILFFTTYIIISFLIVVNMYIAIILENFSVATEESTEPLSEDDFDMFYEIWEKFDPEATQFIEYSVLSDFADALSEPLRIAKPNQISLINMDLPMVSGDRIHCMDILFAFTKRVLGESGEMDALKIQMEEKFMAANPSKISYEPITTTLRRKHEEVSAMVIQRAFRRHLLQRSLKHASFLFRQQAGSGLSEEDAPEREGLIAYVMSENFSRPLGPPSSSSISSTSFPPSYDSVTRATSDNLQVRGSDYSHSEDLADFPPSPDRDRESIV
# [1] = 10 μmol/L compound, change of the area under the curve of Nav1.1 current (Test Result 1)
# [2] = 10 μmol/L compound, change of the area under the curve of Nav1.5 current (Test Result 1)
# [3] = 10 μmol/L compound, change of the area under the curve of Nav1.1 current (Test Result 1), read-out: Nav1.1 current amplification rate (%)
# [4] = 10 μmol/L compound, change of the area under the curve of Nav1.5 current (Test Result 1), read-out: Nav1.5 current amplification rate (%)
# [5] = compound 3 μmol/L, HEK293 stably expressing human Nav1.1
# [6] = compound 3 μmol/L, CHO-K1 stably expressing human Nav1.5
# [7] = compound 1 μmol/L, HEK293 stably expressing human Nav1.1, read-out: Nav1.1 current amplification rate (%)
# [8] = compound 1 μmol/L, CHO-K1 stably expressing human Nav1.5, read-out: Nav1.5 current amplification rate (%)
smiles,measurement,setting,value
CC1CC=C(c2ccc(=O)n(CC(=O)N3CCN(c4cncc(C(F)(F)F)c4)CC3)n2)CC1 (racemic) [Example 401],Nav1.1 current amplification rate (%),human Nav1.1; [1],286%
same,Nav1.5 current amplification rate (%),human Nav1.5; [2],5%
O=C(Cn1nc(-c2ccc(C(F)(F)F)nc2)ccc1=O)Nc1ccc2ocnc2c1 [Example 453],Nav1.1 current amplification rate (%),human Nav1.1; [1],15%
same,Nav1.5 current amplification rate (%),human Nav1.5; [2],1%
O=C(Cn1nc(N2CCC3(CCC3)C2)cc(N2CCCC2)c1=O)Nc1ccc2ocnc2c1 [Example 207],activation at 10 µM,human Nav1.1; [3],89%
same,activation at 10 µM,human Nav1.5; [4],7%
CC1CC=C(c2ccc(=O)n(CC(=O)Nc3ccc4oc(C(C)(C)O)nc4c3)n2)CC1 (racemic) [Example 327],Nav1.1 current amplification rate (%),human Nav1.1; [5],124%
same,Nav1.5 current amplification rate (%),human Nav1.5; [6],9%
COc1cc(=O)n(CC(=O)Nc2ccc3oc(C)nc3c2)nc1C1=CCC(C)(C)CC1 [Example 492],activation at 3 µM,"human Nav1.1; compound 3 μmol/L, HEK293 stably expressing human Nav1.1, read-out: Nav1.1 current amplification rate (%)",222%
same,activation at 3 µM,"human Nav1.5; compound 3 μmol/L, CHO-K1 stably expressing human Nav1.5, read-out: Nav1.5 current amplification rate (%)",16%
CC1CC=C(c2ccc(=O)n(CC(=O)N3CCN(c4ccccc4)CC3)n2)CC1 (racemic) [Example 258],Nav1.1 current amplification rate (%),human Nav1.1; [5],79%
same,Nav1.5 current amplification rate (%),human Nav1.5; [6],4%
CC1CCN(c2ccc(=O)n(CC(=O)N3CCc4cc(N5CCN(C)CC5)ccc43)n2)CC1 [Example 220],activation at 10 µM,human Nav1.1; [3],50%
same,activation at 10 µM,human Nav1.5; [4],5%
CC1CC=C(c2ccc(=O)n(CC(=O)N3CC=C(c4cncnc4)CC3)n2)CC1 (racemic) [Example 398],Nav1.1 current amplification rate (%),human Nav1.1; [1],175%
same,Nav1.5 current amplification rate (%),human Nav1.5; [2],29%
COc1cc(C2=CCC(C)CC2)nn(CC(=O)N2CCc3c(N4CCOCC4)cccc32)c1=O (racemic) [Example 473],Nav1.1 current amplification rate (%),human Nav1.1; [1],487%
same,Nav1.5 current amplification rate (%),human Nav1.5; [2],128%
COc1ncc(N2CCN(C(=O)Cn3nc(C4=CCC(C)CC4)ccc3=O)CC2)cc1F (stereo not shown) [Example 409],Nav1.1 current amplification rate (%),human Nav1.1; [5],244%
same,Nav1.5 current amplification rate (%),human Nav1.5; [6],11%
CC1CC=C(c2ccc(=O)n(CC(=O)Nc3ccc4cncnc4c3)n2)CC1 (racemic) [Example 356],Nav1.1 current amplification rate (%),"human Nav1.1; compound 1 μmol/L, HEK293 stably expressing human Nav1.1",378%
same,Nav1.5 current amplification rate (%),"human Nav1.5; compound 1 μmol/L, CHO-K1 stably expressing human Nav1.5",34%
Cc1cc(C2=CCC(C)(C)CC2)nn(CC(=O)N2CCN(c3cccnc3)CC2)c1=O [Example 513],activation at 10 µM,human Nav1.1; [3],262%
same,activation at 10 µM,human Nav1.5; [4],4%
Cc1cc(=O)n(CC(=O)Nc2ccn3ncnc3c2)nc1C1=CCC(C)CC1 (stereo not shown) [Example 502],activation at 1 µM,human Nav1.1; [7],49%
same,activation at 1 µM,human Nav1.5; [8],7%
COc1cc(=O)n(CC(=O)N2CCc3c(N4CCOCC4)cccc32)nc1C1=CCC(C(F)(F)F)CC1 (racemic) [Example 476],Nav1.1 current amplification rate (%),human Nav1.1; [1],343%
same,Nav1.5 current amplification rate (%),human Nav1.5; [2],13%
CC1CCN(c2ccc(=O)n(CC(=O)Nc3cc(F)c4ocnc4c3)n2)CC1 [Example 216],activation at 10 µM,human Nav1.1; [3],121%
same,activation at 10 µM,human Nav1.5; [4],3%
COc1cc(N2CCC3(CCC3)C2)nn(CC(=O)Nc2ccn3ccnc3c2)c1=O [Example 213],activation at 10 µM,human Nav1.1; [3],136%
same,activation at 10 µM,human Nav1.5; [4],5%
Cc1ccc(N2CCN(C(=O)Cn3nc(C4=CCC(C)CC4)ccc3=O)CC2)cn1 (racemic) [Example 396],Nav1.1 current amplification rate (%),human Nav1.1; [1],136%
same,Nav1.5 current amplification rate (%),human Nav1.5; [2],8%
O=C(Cn1nc(C2=CCC(C(F)(F)F)CC2)ccc1=O)N1CCN(c2cncc(F)c2)CC1 (racemic) [Example 487],Nav1.1 current amplification rate (%),human Nav1.1; [1],190%
same,Nav1.5 current amplification rate (%),human Nav1.5; [2],109%
"O=C(Cn1nc(C2=CCC3(CC2)CC3)ccc1=O)N1CCc2c(-c3ccnnc3)cccc21 [Example 526, 2-{2-oxo-2-[4-(pyridazin-4-yl)-2.3-dihydro-1H-indol-1-yl]ethyl}-6-(spiro[2.5]oct-5-en-6-yl)pyridazin-3(2H)one]",activation at 1 µM,human Nav1.1; [7],499%
same,activation at 1 µM,human Nav1.5; [8],1%
Cc1ccc(-c2ccc(=O)n(CC(=O)N3CCc4cnccc43)n2)cc1 [Example 159],Nav1.1 current amplification rate (%),human Nav1.1; [1],32%
same,Nav1.5 current amplification rate (%),human Nav1.5; [2],26%
